Biological target: IRAK4 (Homo sapiens, UniProt Q9NWZ3)
Test: biochemical

Chain of IRAK4 (Q9NWZ3 whole entry): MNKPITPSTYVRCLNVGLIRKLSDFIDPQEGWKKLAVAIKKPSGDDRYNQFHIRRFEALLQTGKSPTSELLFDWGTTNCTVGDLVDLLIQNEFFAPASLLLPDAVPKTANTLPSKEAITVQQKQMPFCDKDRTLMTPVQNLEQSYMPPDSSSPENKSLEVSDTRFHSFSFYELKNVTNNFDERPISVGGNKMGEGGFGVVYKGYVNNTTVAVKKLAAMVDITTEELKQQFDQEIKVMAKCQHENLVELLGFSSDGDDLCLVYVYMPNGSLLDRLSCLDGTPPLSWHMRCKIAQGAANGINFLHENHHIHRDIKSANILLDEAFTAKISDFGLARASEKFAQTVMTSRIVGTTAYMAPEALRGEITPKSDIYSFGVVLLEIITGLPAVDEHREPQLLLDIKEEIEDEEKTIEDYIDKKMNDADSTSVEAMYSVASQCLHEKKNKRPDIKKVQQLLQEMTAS

CN(C)C [TMA]
IC50: 3.4 µM

Reference: paper doi:10.1101/277434v2 (biorxiv, 2024)
